The subject of this assay is IL-2 production. Briefly: Inhibition of IL-2 production in PHA-activated Jurkat cells (ELISA). Format: cell-based. As to conditions: Homo sapiens, Jurkat, 20 h, PHA 2.5 μg/mL, IL-2 ELISA. Background: An ELISA detects its analyte on a solid surface through an enzyme-linked reagent.

The structures appear in SMILES notation.

One may read the IC50 as the concentration needed to halve the response being measured.

For `CC1=C(c2ccc(NC(=O)c3c(F)cccc3F)cc2)CN(C(=O)C2CC2)CC1` [Compound 63, 2,6-Difluoro-N-[4-(1-cyclopropylcarbonyl-4-methyl-1,2,5,6-tetrahydro-pyridin-3-yl)-phenyl]-benzamide], half-maximal inhibition (IC50) required 182 nM.
The result for `O=CC1=C(c2ccc(NC(=O)c3c(F)cccc3F)cc2)CCCCC1` [Compound 37, 2,6-Difluoro-N-[4-(2-formyl-cyclohept-1-enyl)-phenyl]-benzamide] reads 774 nM.
The result for `CCOC(=O)C1=C(c2ccc(NC(=O)c3c(F)cccc3F)cc2)CCCC1` [Compound 99, N-[4-(2-ethyoxycarbonyl-cyclohex-1-enyl)-phenyl]-2,6-difluoro-benzamide] reads 282 nM.
The result for `CC1=C(c2ccc(NC(=O)c3c(F)cccc3F)cc2)CN(C#N)CC1` [Compound 58, 2,6-Difluoro-N-[4-(1-cyano-4-methyl-1,2,5,6-tetrahydro-pyridin-3-yl)-phenyl]-benzamide] reads more than 1000 nM; that for `O=CC1=C(c2ccc(NC(=O)c3c(F)cccc3F)cc2)CCC1` [Compound 32, 2,6-Difluoro-N-[4-(2-formyl-cyclopent-1-enyl)-phenyl]-benzamide], more than 1000 nM; that for `CC1=C(c2ccc(NC(=O)c3ccncc3F)cc2)CCCC1` [Compound 1, 3-Fluoro-N-[4-(2-methyl-cyclohex-1-enyl)-phenyl]-isonicotinamide], 84 nM.

Source of the values: patent US7816535B2, “Vinyl-phenyl derivatives for inflammation and immune-related uses” (Synta Pharmaceuticals Corp., priority 2006, dated 2010).
